Test: method code SF-AS, from DOI: 10.1016/0021-9673(91)80064-n
Conditions: not given

Row | logP | SMILES
1 | -0.21 | C=CC(=O)NCCc1c[nH]cn1
2 | 0 | C=CC(=O)NCCCN(C)C
3 | 0.54 | C=CC(=O)NCCCN1CCSCC1
4 | -0.25 | C=CC(=O)NCCN(C)C
5 | 0.72 | C=CC(=O)NCCCN(CC)CC
6 | -0.6 | C=CC(=O)NCCCN(CCO)CCO

Test: method code SF-AS, from DOI: 10.1021/jm00223a031, PMID: 810572
Conditions: not given

Row | logP | SMILES
7 | 2.37 | Cc1ccc(O)c2ncccc12
8 | 2.75 | COc1ccc(O)c2nccc(C)c12
9 | 1.59 | Cc1ccnc2c(O)ccc(O)c12
10 | 2.71 | Cc1ccnc2c(O)ccc(C)c12
11 | -0.11 | Nc1ccc(O)c2ncccc12
12 | 0.62 | Oc1ccnc2c(O)cccc12

Test: method code SF, from DOI: 10.1016/0360-3016(86)90226-9, PMID: 3744928
Conditions: pH 7.4

Row | logD | SMILES
13 | -0.38 | COC(=O)Cn1cnc([N+](=O)[O-])n1
14 | -1.24 | O=C(Cn1cnc([N+](=O)[O-])n1)NCCCO
15 | -1.54 | O=[N+]([O-])c1ncn([C@H]2O[C@H](CO)[C@@H](O)[C@H]2O)n1
16 | 0.05 | O=[N+]([O-])c1ncn(CC(O)CCl)n1 (centres undefined)
17 | -0.07 | CCOCC(O)Cn1cnc([N+](=O)[O-])n1 (centres undefined)

Row | SMILES | logD
18 | O=[N+]([O-])c1nccn1CC(O)CN1CC1 (centres undefined) | -0.66

Test: method code SF-AS, from DOI: 10.1007/bf02877675, PMID: 411721
Conditions: not given

Row | SMILES | logP
19 | N#CC(C#N)=NNc1ccc(Cl)cc1 | 3.08
20 | N#CC(C#N)=NNc1ccccc1Cl | 2.65
21 | N#CC(C#N)=NNc1ccc(Br)cc1 | 3.38
22 | CC(=O)c1ccc(NN=C(C#N)C#N)cc1 | 2.17
23 | N#CC(C#N)=NNc1ccc(Cl)c(Cl)c1 | 3.42
24 | N#CC(C#N)=NNc1ccc([N+](=O)[O-])cc1 | 2.34

Test: method code SF-GLC, from DOI: 10.1016/0378-4274(82)90116-3, PMID: 7090003
Conditions: not given

Row | logP | SMILES
25 | 2.54 | C=C(C)C(=O)OC(C)(C)C
26 | 0.47 | C=C(C)C(=O)OCCO
27 | 2.66 | C=C(C)C(=O)OCC(C)C
28 | 0.97 | C=C(C)C(=O)OCC(C)O (centres undefined)

Row | SMILES | logP
29 | C=CC(=O)OCC(C)C | 2.22
30 | C=CC(=O)OCCO | -0.21

Test: method code SF-HPLC, from DOI: 10.1016/s0021-9673(01)88640-4
Conditions: not given

Row | SMILES | logP
31 | N#CN=[N+]([O-])c1ccccn1 | 0.53
32 | N#CN=[N+]([O-])c1cc[n+]([O-])cc1 | -0.41
33 | N#CN=[N+]([O-])c1cccc2ccccc12 | 3.17
34 | N#CN=[N+]([O-])c1cc[n+]([O-])c2ccccc12 | 1.12
35 | N#CN=[N+]([O-])c1ncccn1 | -0.31
36 | N#CN=[N+]([O-])c1ccnc2ccccc12 | 2.07

Test: method code SF, from DOI: 10.1002/jps.2600830714, PMID: 7965679
Conditions: not given

Row | logP | SMILES
37 | -1.04 | CO[C@H]1O[C@H](CO)[C@@H](O)[C@H](O)[C@H]1NC(=O)CNC(=O)N(CCCl)N=O
38 | -1.1 | O=NN(CCCl)C(=O)NCC(=O)NC1C(O)OC(CO)C(O)C1O (centres undefined)
39 | 0.61 | CC(=O)OC[C@H]1O[C@@H](OC(C)=O)[C@H](NC(=O)CNC(=O)N(CCCl)N=O)[C@@H](OC(C)=O)[C@@H]1OC(C)=O
40 | -0.76 | COC1OC(CO)C(O)C(O)C1NC(=O)C(C)NC(=O)N(CCCl)N=O (centres undefined)
41 | -1.02 | CC(NC(=O)N(CCCl)N=O)C(=O)NC1C(O)OC(CO)C(O)C1O (centres undefined)

Row | SMILES | logP
42 | NC(=O)CNC(=O)N(CCCl)N=O | -0.3

Test: not given
Conditions: not given

Row | logP | SMILES
43 | 0.79 | CCc1cnccn1
44 | -0.34 | c1cncnc1
45 | 1.57 | CCOC(=O)c1ccco1

Row | SMILES | logP
46 | c1ccoc1 | 1.31

Test: not given
Conditions: not given
Remark: another data set of the same source

Row | logP | SMILES
47 | 0.41 | [O-][n+]1cccc2ccccc21
48 | -0.44 | [O-][n+]1ccc(Cl)cc1
49 | -0.91 | N#Cc1cc[n+]([O-])cc1
50 | -0.93 | CC(=O)c1cc[n+]([O-])cc1
51 | -0.53 | CCOc1cc[n+]([O-])cc1
52 | -0.88 | Cc1cc[n+]([O-])cc1

Test: method code SF-AS, from PMID: 3699148
Conditions: pH 7.4

Row | logD | SMILES
53 | -0.8 | NC(=O)c1ccccc1NCC(O)CO (centres undefined)
54 | 0.62 | CC(O)CNc1ccccc1C(N)=O (centres undefined)
55 | 2.99 | CCCCOCCNc1ccc(Cl)cc1C(N)=O
56 | 2.94 | Cc1ccccc1OCCNc1ccccc1C(N)=O
57 | 0.7 | NC(=O)c1ccccc1NCCCO
58 | 2.27 | CCCCOCCNc1ccccc1C(N)=O

Test: method code SF, from DOI: 10.1016/0360-3016(89)90912-7, PMID: 2703384
Conditions: pH 7.4

Row | logD | SMILES
59 | 0.04 | O=[N+]([O-])c1nccn1CC(F)(F)CO
60 | 0.18 | COCC(F)Cn1ccnc1[N+](=O)[O-] (centres undefined)
61 | -0.46 | O=C(Cn1cnc([N+](=O)[O-])c1)NCCO
62 | -0.21 | O=[N+]([O-])c1cn(CC(F)(F)CO)cn1
63 | -0.15 | COCCNC(=O)C(F)(F)Cn1ccnc1[N+](=O)[O-]

Row | SMILES | logD
64 | O=[N+]([O-])c1cn(CC(O)CF)cn1 (centres undefined) | -0.44
